Results from publication PMC12036875, “Mitochondria-targeting natural product rhein conjugated with dichloroacetate as the dual inhibitor of glycolysis and oxidative phosphorylation to off energize cancer cells and induce ROS storm” (Theranostics, 2025).
Each block holds one compound with its values, some of them ahead of it.

What was measured:
[1] = molecular target: T1, PDK1 (Homo sapiens, UniProt O15530); assay: PDK1 kinase activity assay (ADP-Glo); assay type: biochemical; details: 0.08, 0.4, 2 μM; 30 min pre-incubation; effect of Rhein-DCA at 2 μM
T1 construct: purchased Promega Biotech Co., Ltd (USA)
T1 sequence (O15530 1-556): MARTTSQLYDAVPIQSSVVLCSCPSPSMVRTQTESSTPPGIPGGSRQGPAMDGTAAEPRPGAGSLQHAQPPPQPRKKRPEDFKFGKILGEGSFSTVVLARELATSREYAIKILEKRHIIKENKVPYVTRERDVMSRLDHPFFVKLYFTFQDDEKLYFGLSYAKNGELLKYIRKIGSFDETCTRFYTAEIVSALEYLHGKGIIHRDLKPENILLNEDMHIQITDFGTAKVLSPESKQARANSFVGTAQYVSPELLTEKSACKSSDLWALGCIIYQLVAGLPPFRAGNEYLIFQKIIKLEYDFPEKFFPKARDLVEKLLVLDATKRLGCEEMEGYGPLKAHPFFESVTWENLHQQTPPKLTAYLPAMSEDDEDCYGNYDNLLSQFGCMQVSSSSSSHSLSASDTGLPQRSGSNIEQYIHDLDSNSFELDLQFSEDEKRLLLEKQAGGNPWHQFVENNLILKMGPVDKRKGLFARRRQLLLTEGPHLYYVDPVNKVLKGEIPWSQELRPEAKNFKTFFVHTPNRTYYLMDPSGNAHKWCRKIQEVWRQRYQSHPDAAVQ
Protocol: The elevated glycolytic metabolism in cancer cells would be blocked when the activity of the gate enzyme PDH was resumed through inhibiting overexpression of PDK1, followed by a decrease in lactate and energy production (Figure 2A). ADP-Glo^TM Kinase assay was initially employed to investigate the potential of Rhein-DCA conjugate to suppress PDK1 activity in vitro. PDK1 were separately incubated with rhein, DCA, and Rhein-DCA conjugate for 30 min for better binding, then the enzymatic substrate was added to the mixture to initiate the reaction. Finally, the luminescent signal representing PDK1 activity was recorded once the detection procedures were completed. More detailed experimental information was presented in the supporting information.
The inhibitory effect of PDK1 kinase was evaluated with the […] kinase assay. Firstly, PDK1 enzyme, PDK tide, ATP, and indicated drugs (dissolved in DMSO) were dissolved in kinase buffer. Then, 5 μL of compounds (rhein, DCA and Rhein-DCA) with diverse concentrations and 10 μL of PDK1 enzyme were dispensed to the 96-well plate and incubated for 30 min at room temperature. Next, 10 μL of PDK tide/ATP mixture was added and incubated at room temperature for 60 min. Finally, to halt the reaction and deplete the remaining ATP, 25 μL of ADP-Glo™ reagent was added to each well and incubated at room temperature for 40 min. 50 μL of kinase detection reagent was added and incubated at room temperature for another 30 min. Ultimately, the luminescence signal was recorded by multi-mode microplate reader (Integration time: 1 s). The concentrations of reagents employed in this assay were as follows: […]

[2] = test system: tumor-associated macrophages in 4T1 tumors; assay: Tumor-associated macrophages detection (flow cytometry); assay type: in vivo, Balb/c mice; details: primary 4T1 tumors; for M1 macrophages (CD80+ in CD11b+ cells) / M2 macrophages (CD206+ in CD11b+ cells): 20 mg/kg oral, 24 days; for M1 macrophages (CD80+ in CD11b+ cells): vehicle 5.8%; for M2 macrophages (CD206+ in CD11b+ cells): vehicle 36.5%
Protocol: To further investigate the immunomodulatory effects of the Rhein-DCA conjugate, we analyzed TAMs by flow cytometry, where CD11b and CD80 antibodies were labeled for M1-phenotype macrophages (Figure 7D), CD11b and CD206 antibodies were labeled for M2-phenotype macrophages (Figure 7E).
The macrophages within the tumor microenvironment of tumor tissues were further analyzed. Tumor tissues were minced into small pieces and then digested in a solution containing 1 mg/mL of collagenase IV, 0.1 mg/mL of hyaluronidase and 0.1 mg/mL of DNAase I at 37 °C for 1.5 h. The supernatants containing single cells were collected by filtering through 200 mesh filters. Cells were obtained by centrifugation and further blocked with anti-CD16/32 (1 μg/100 μL) for 10 min in an ice bath. Thereafter, FITC anti-mouse CD11b (1 μg/100 μL) and PE anti-mouse CD80 (1 μg/100 μL) antibodies were employed to stain the cells in an ice bath for 20 min. After that, the cells were collected and fixed with 4%-paraformaldehyde at room temperature for 20 min, and then stained with APC anti-mouse CD206 antibody (0.5 μg/100 μL, in 1 × Fix/Perm buffer) at room temperature in the dark for 20 min. Finally, cells were analyzed with flow cytometry after being resuspended in 1 × Perm/Wash buffer.

[3] = test system: 4T1 tumor; assay: In vivo antitumor effect, 4T1 tumor xenograft model; parameters: species or system Balb/c mice; details: for tumor H&E and TUNEL staining: 20 mg/kg oral; for tumor H&E and TUNEL staining / tumor growth compared with vehicle group: 24 days; for tumor growth compared with vehicle group: oral gavage daily, n = 5
Protocol: The antitumor efficiency of Rhein-DCA conjugate in vivo was explored using the female Balb/c mice with 4T1 tumor xenografts model. Briefly, 4T1-tumor bearing mice were randomly divided into vehicle, rhein, DCA, R + D and Rhein-DCA conjugate groups when the tumor became apparent (n = 5). Mice were treated daily with vehicle (2.85% anhydrous ethanol / 10% cremophor / 0.02% 0.1 M HCl / 87.15% saline) and rhein, DCA, R + D and Rhein-DCA conjugate (20 mg/kg) by oral gavage for 24 days. The body weight and tumor volume of mice were monitored and recorded every two days. […] The photograph and the weight information of all excised tumor xenografts further visually confirmed the antitumor effect of Rhein-DCA conjugate in vivo (Figure 6C-D). […] Due to suppression of tumor growth, the survival of mice treated with Rhein-DCA conjugate was improved in contrast to vehicle group (Figure S22).
Balb/c female mice (6 weeks) and Sprague-Dawley (SD) rats were purchased from Hubei provincial laboratory animal research center (Wuhan, P. R. China). All related animal experiments were approved by the Animal Welfare Committee of the Animal Experiment Center of Wuhan University. All Balb/c mice were shaved two days in advance and then subcutaneously injected with 4T1 cells (5 × 10^6 cells in 50 μL of PBS per mouse) into the back of the right leg. The 4T1 tumor bearing mice were randomly divided into five groups (5 mice per group) which containing vehicle, rhein, DCA, R + D and Rhein-DCA groups when the tumor volumes reached about 100~120 mm^3. The tumor size was calculated with the following formula:
Subsequently, mice were orally treated with vehicle (2.85% anhydrous ethanol / 10% cremophor / 0.02% HCl (0.1 M) / 87.15% saline) and rhein, DCA, R + D and Rhein-DCA (20 mg/kg, suspended in 2.85% anhydrous ethanol / 10% cremophor / 0.02% HCl (0.1 M) / 87.15% saline) every day. The body weight and tumor size changes of each mouse were measured and recorded every two days.
After 24 days, the mice were euthanized, and then tumors were excised to photographing and weighting. The tumors in each group were performed with TUNEL (green fluorescence) and H&E assay. In addition, immunohistochemical staining was conducted on the tumor tissue to determine the pPDHA1-Ser^293 protein level. Besides, immunofluorescence staining was used to detect the expression of HMGB1 protein in the tumor.

Structure (SMILES): O=C(O)C(Cl)Cl [DCA, Dichloroacetate]
PDK1 activity (luminescent signal) [1]: did not exhibit obvious differences
M1 macrophages (CD80+ in CD11b+ cells) [2]: 7.7%
M2 macrophages (CD206+ in CD11b+ cells) [2]: 13.6%
tumor H&E and TUNEL staining [3]: mild apoptosis and necrosis
tumor growth compared with vehicle group ([3]; 20 mg/kg): slight inhibition

PDK1 activity (luminescent signal) [1]: almost negligible
Structure (SMILES): O=C(O)c1cc(O)c2c(c1)C(=O)c1cccc(O)c1C2=O [Rhein, 4,5-dihydroxyanthraquinone-2-carboxylic acid]
M1 macrophages (CD80+ in CD11b+ cells) [2]: 6.0%
M2 macrophages (CD206+ in CD11b+ cells) [2]: 16.6%
tumor H&E and TUNEL staining [3]: mild apoptosis and necrosis
tumor growth compared with vehicle group ([3]; 20 mg/kg): slight inhibition

Structure (SMILES): O=C(OCCOC(=O)C(Cl)Cl)c1cc(O)c2c(c1)C(=O)c1cccc(O)c1C2=O [Rhein-DCA]
PDK1 activity (luminescent signal) [1]: dramatically decreased
M1 macrophages increase vs vehicle [2]: 1.8 fold
M2 macrophages reduction vs vehicle [2]: 9.4 fold
M1 macrophages (CD80+ in CD11b+ cells) [2]: 10.3%
M2 macrophages (CD206+ in CD11b+ cells) [2]: 3.9%
tumor H&E and TUNEL staining [3]: more extensive tissue necrosis and considerable cell apoptosis
survival of mice in contrast to vehicle group ([3]; 20 mg/kg, oral): improved
tumor growth compared with vehicle group ([3]; 20 mg/kg): significant inhibition
